# Experimental data from ChEMBL document CHEMBL3045059, “Efficacy of ketoenols on insecticide resistant field populations of two-spotted spider mite Tetranychus urticae and sweet potato whitefly Bemisia tabaci from Greece” (2012).
# Columns and labels:
# Format in all cases: functional
# Tetranychus urticae [1] = assay: Acaricidal activity against adult Tetranychus urticae (two-spotted spider mite) greenhouse population TU1 in bean leaves assessed as mortality applied at 1 bar pressure measured after 48 hr; conditions: TU1, 48 h
# Tetranychus urticae [2] = assay: Acaricidal activity against adult Tetranychus urticae (two-spotted spider mite) greenhouse population TU7 in bean leaves assessed as mortality applied at 1 bar pressure measured after 48 hr; conditions: TU7, 48 h
# Tetranychus urticae [3] = assay: Resistance ratio, ratio of LC50 for adult Tetranychus urticae (two-spotted spider mite) field population TU4 to LC50 for adult Tetranychus urticae laboratory strain SAMB measured after 48 hr
# Tetranychus urticae [4] = assay: Resistance ratio, ratio of LC50 for adult Tetranychus urticae (two-spotted spider mite) field population TU12 to LC50 for adult Tetranychus urticae laboratory strain SAMB measured after 48 hr
# Tetranychus urticae [5] = assay: Acaricidal activity against adult Tetranychus urticae (two-spotted spider mite) laboratory strain SAMB in bean leaves assessed as mortality applied at 1 bar pressure measured after 48 hr
# Tetranychus urticae [6] = assay: Acaricidal activity against adult Tetranychus urticae (two-spotted spider mite) greenhouse population TU3 in bean leaves assessed as mortality applied at 1 bar pressure measured after 48 hr; conditions: TU3, 48 h
# Tetranychus urticae [7] = assay: Resistance ratio, ratio of LC50 for adult Tetranychus urticae (two-spotted spider mite) laboratory strain GSS to LC50 for adult Tetranychus urticae laboratory strain SAMB measured after 48 hr
# Tetranychus urticae [8] = assay: Resistance ratio, ratio of LC50 for adult Tetranychus urticae (two-spotted spider mite) greenhouse population TU11 to LC50 for adult Tetranychus urticae laboratory strain SAMB measured after 48 hr
# Tetranychus urticae [9] = assay: Resistance ratio, ratio of LC50 for adult Tetranychus urticae (two-spotted spider mite) field population TU2 to LC50 for adult Tetranychus urticae laboratory strain SAMB measured after 48 hr
# Tetranychus urticae [10] = assay: Acaricidal activity against adult Tetranychus urticae (two-spotted spider mite) field population TU12 in bean leaves assessed as mortality applied at 1 bar pressure measured after 48 hr; conditions: TU12, 48 h
# Tetranychus urticae [11] = assay: Acaricidal activity against adult Tetranychus urticae (two-spotted spider mite) greenhouse population TU11 in bean leaves assessed as mortality applied at 1 bar pressure measured after 48 hr; conditions: TU11, 48 h
# Tetranychus urticae [12] = assay: Resistance ratio, ratio of LC50 for adult Tetranychus urticae (two-spotted spider mite) greenhouse population TU1 to LC50 for adult Tetranychus urticae laboratory strain SAMB measured after 48 hr
# Tetranychus urticae [13] = assay: Resistance ratio, ratio of LC50 for adult Tetranychus urticae (two-spotted spider mite) greenhouse population TU7 to LC50 for adult Tetranychus urticae laboratory strain SAMB measured after 48 hr
# Tetranychus urticae [14] = assay: Acaricidal activity against adult Tetranychus urticae (two-spotted spider mite) field population TU2 in bean leaves assessed as mortality applied at 1 bar pressure measured after 48 hr; conditions: TU2, 48 h
# Tetranychus urticae [15] = assay: Resistance ratio, ratio of LC50 for adult Tetranychus urticae (two-spotted spider mite) greenhouse population TU5 to LC50 for adult Tetranychus urticae laboratory strain SAMB measured after 48 hr
# Tetranychus urticae [16] = assay: Resistance ratio, ratio of LC50 for adult Tetranychus urticae (two-spotted spider mite) greenhouse population TU3 to LC50 for adult Tetranychus urticae laboratory strain SAMB measured after 48 hr
# Tetranychus urticae [17] = assay: Acaricidal activity against adult Tetranychus urticae (two-spotted spider mite) greenhouse population TU9 in bean leaves assessed as mortality applied at 1 bar pressure measured after 48 hr; conditions: TU9, 48 h
# Tetranychus urticae [18] = assay: Acaricidal activity against adult Tetranychus urticae (two-spotted spider mite) field population TU4 in bean leaves assessed as mortality applied at 1 bar pressure measured after 48 hr; conditions: TU4, 48 h
# Tetranychus urticae [19] = assay: Resistance ratio, ratio of LC50 for adult Tetranychus urticae (two-spotted spider mite) greenhouse population TU9 to LC50 for adult Tetranychus urticae laboratory strain SAMB measured after 48 hr
# Tetranychus urticae [20] = assay: Acaricidal activity against adult Tetranychus urticae (two-spotted spider mite) greenhouse population TU5 in bean leaves assessed as mortality applied at 1 bar pressure measured after 48 hr; conditions: TU5, 48 h
# Tetranychus urticae [21] = assay: Acaricidal activity against adult Tetranychus urticae (two-spotted spider mite) field population TU6 in bean leaves assessed as mortality applied at 1 bar pressure measured after 48 hr; conditions: TU6, 48 h
# Tetranychus urticae [22] = assay: Resistance ratio, ratio of LC50 for adult Tetranychus urticae (two-spotted spider mite) field population TU6 to LC50 for adult Tetranychus urticae laboratory strain SAMB measured after 48 hr
# Tetranychus urticae [23] = assay: Acaricidal activity against adult Tetranychus urticae (two-spotted spider mite) laboratory strain GSS in bean leaves assessed as mortality applied at 1 bar pressure measured after 48 hr
# Tetranychus urticae [24] = assay: Resistance ratio, ratio of LC50 for adult Tetranychus urticae (two-spotted spider mite) greenhouse population TU9 to LC50 for adult Tetranychus urticae laboratory strain SAMB measured after 24 hr
# Tetranychus urticae [25] = assay: Acaricidal activity against adult Tetranychus urticae (two-spotted spider mite) field population TU6 in bean leaves assessed as mortality applied at 1 bar pressure measured after 24 hr; conditions: TU6, 24 h
# Tetranychus urticae [26] = assay: Resistance ratio, ratio of LC50 for adult Tetranychus urticae (two-spotted spider mite) field population TU12 to LC50 for adult Tetranychus urticae laboratory strain SAMB measured after 24 hr
# Tetranychus urticae [27] = assay: Resistance ratio, ratio of LC50 for adult Tetranychus urticae (two-spotted spider mite) field population TU4 to LC50 for adult Tetranychus urticae laboratory strain SAMB measured after 24 hr
# Tetranychus urticae [28] = assay: Acaricidal activity against adult Tetranychus urticae (two-spotted spider mite) laboratory strain GSS in bean leaves assessed as mortality applied at 1 bar pressure measured after 24 hr
# Tetranychus urticae [29] = assay: Acaricidal activity against adult Tetranychus urticae (two-spotted spider mite) greenhouse population TU9 in bean leaves assessed as mortality applied at 1 bar pressure measured after 24 hr; conditions: TU9, 24 h
# Tetranychus urticae [30] = assay: Acaricidal activity against adult Tetranychus urticae (two-spotted spider mite) laboratory strain SAMB in bean leaves assessed as mortality applied at 1 bar pressure measured after 24 hr
# Tetranychus urticae [31] = assay: Acaricidal activity against adult Tetranychus urticae (two-spotted spider mite) greenhouse population TU1 in bean leaves assessed as mortality applied at 1 bar pressure measured after 24 hr; conditions: TU1, 24 h
# Tetranychus urticae [32] = assay: Acaricidal activity against adult Tetranychus urticae (two-spotted spider mite) greenhouse population TU11 in bean leaves assessed as mortality applied at 1 bar pressure measured after 24 hr; conditions: TU11, 24 h
# Tetranychus urticae [33] = assay: Resistance ratio, ratio of LC50 for adult Tetranychus urticae (two-spotted spider mite) greenhouse population TU7 to LC50 for adult Tetranychus urticae laboratory strain SAMB measured after 24 hr
# Tetranychus urticae [34] = assay: Acaricidal activity against adult Tetranychus urticae (two-spotted spider mite) greenhouse population TU3 in bean leaves assessed as mortality applied at 1 bar pressure measured after 24 hr; conditions: TU3, 24 h
# Tetranychus urticae [35] = assay: Acaricidal activity against adult Tetranychus urticae (two-spotted spider mite) field population TU12 in bean leaves assessed as mortality applied at 1 bar pressure measured after 24 hr; conditions: TU12, 24 h
# Tetranychus urticae [36] = assay: Acaricidal activity against adult Tetranychus urticae (two-spotted spider mite) field population TU4 in bean leaves assessed as mortality applied at 1 bar pressure measured after 24 hr; conditions: TU4, 24 h
# Tetranychus urticae [37] = assay: Resistance ratio, ratio of LC50 for adult Tetranychus urticae (two-spotted spider mite) laboratory strain GSS to LC50 for adult Tetranychus urticae laboratory strain SAMB measured after 24 hr
# Tetranychus urticae [38] = assay: Resistance ratio, ratio of LC50 for adult Tetranychus urticae (two-spotted spider mite) greenhouse population TU11 to LC50 for adult Tetranychus urticae laboratory strain SAMB measured after 24 hr
# Tetranychus urticae [39] = assay: Resistance ratio, ratio of LC50 for adult Tetranychus urticae (two-spotted spider mite) greenhouse population TU5 to LC50 for adult Tetranychus urticae laboratory strain SAMB measured after 24 hr
# Tetranychus urticae [40] = assay: Resistance ratio, ratio of LC50 for adult Tetranychus urticae (two-spotted spider mite) field population TU2 to LC50 for adult Tetranychus urticae laboratory strain SAMB measured after 24 hr
# Tetranychus urticae [41] = assay: Acaricidal activity against adult Tetranychus urticae (two-spotted spider mite) greenhouse population TU5 in bean leaves assessed as mortality applied at 1 bar pressure measured after 24 hr; conditions: TU5, 24 h
# Tetranychus urticae [42] = assay: Acaricidal activity against adult Tetranychus urticae (two-spotted spider mite) greenhouse population TU7 in bean leaves assessed as mortality applied at 1 bar pressure measured after 24 hr; conditions: TU7, 24 h
# Tetranychus urticae [43] = assay: Acaricidal activity against adult Tetranychus urticae (two-spotted spider mite) field population TU2 in bean leaves assessed as mortality applied at 1 bar pressure measured after 24 hr; conditions: TU2, 24 h
# Tetranychus urticae [44] = assay: Resistance ratio, ratio of LC50 for adult Tetranychus urticae (two-spotted spider mite) field population TU6 to LC50 for adult Tetranychus urticae laboratory strain SAMB measured after 24 hr
# Tetranychus urticae [45] = assay: Resistance ratio, ratio of LC50 for adult Tetranychus urticae (two-spotted spider mite) greenhouse population TU1 to LC50 for adult Tetranychus urticae laboratory strain SAMB measured after 24 hr
# Tetranychus urticae [46] = assay: Resistance ratio, ratio of LC50 for adult Tetranychus urticae (two-spotted spider mite) greenhouse population TU3 to LC50 for adult Tetranychus urticae laboratory strain SAMB measured after 24 hr
structure (smiles),measurement,setting,value
Cc1c(COC(=O)[C@@H]2[C@H](/C=C(\Cl)C(F)(F)F)C2(C)C)cccc1-c1ccccc1 (relative stereo) [BIFENTHRIN],LC50,Tetranychus urticae [1],115 µg/mL
same,LC50,Tetranychus urticae [2],75.1 mg/mL
same,RatioLC50,Tetranychus urticae [3],351
same,RatioLC50,Tetranychus urticae [4],9.5
same,LC50,Tetranychus urticae [5],8.9 µg/mL
same,LC50,Tetranychus urticae [6],741 µg/mL
same,RatioLC50,Tetranychus urticae [7],1.5
same,RatioLC50,Tetranychus urticae [8],19
same,RatioLC50,Tetranychus urticae [9],4.7
same,LC50,Tetranychus urticae [10],85 µg/mL
same,LC50,Tetranychus urticae [11],168 µg/mL
same,RatioLC50,Tetranychus urticae [12],13
same,RatioLC50,Tetranychus urticae [13],8413
same,LC50,Tetranychus urticae [14],42 µg/mL
same,RatioLC50,Tetranychus urticae [15],5
same,RatioLC50,Tetranychus urticae [16],83
same,LC50,Tetranychus urticae [17],112 µg/mL
same,LC50,Tetranychus urticae [18],3140 µg/mL
same,RatioLC50,Tetranychus urticae [19],12
same,LC50,Tetranychus urticae [20],45 µg/mL
same,LC50,Tetranychus urticae [21],8.5 µg/mL
same,RatioLC50,Tetranychus urticae [22],0.9
same,LC50,Tetranychus urticae [23],13 µg/mL
CC(C)(C)c1ccc(CCOc2ncnc3ccccc23)cc1 [FENAZAQUIN],RatioLC50,Tetranychus urticae [24],23
same,LC50,Tetranychus urticae [25],29 µg/mL
same,RatioLC50,Tetranychus urticae [26],15
same,RatioLC50,Tetranychus urticae [27],4.1
same,LC50,Tetranychus urticae [28],17 µg/mL
same,LC50,Tetranychus urticae [29],316 µg/mL
same,LC50,Tetranychus urticae [30],13 µg/mL
same,LC50,Tetranychus urticae [31],179 µg/mL
same,LC50,Tetranychus urticae [32],562 µg/mL
same,RatioLC50,Tetranychus urticae [33],33
same,LC50,Tetranychus urticae [34],77 µg/mL
same,LC50,Tetranychus urticae [35],215 µg/mL
same,LC50,Tetranychus urticae [36],55 µg/mL
same,RatioLC50,Tetranychus urticae [37],1.3
same,RatioLC50,Tetranychus urticae [38],42
same,RatioLC50,Tetranychus urticae [39],3.7
same,RatioLC50,Tetranychus urticae [40],7.3
same,LC50,Tetranychus urticae [41],49 µg/mL
same,LC50,Tetranychus urticae [42],447 µg/mL
same,LC50,Tetranychus urticae [43],97 µg/mL
same,RatioLC50,Tetranychus urticae [44],2.2
same,RatioLC50,Tetranychus urticae [45],13
same,RatioLC50,Tetranychus urticae [46],5.7
CCN(CC)c1nc(C)cc(OP(=S)(OC)OC)n1 [PIRIMIPHOS METHYL],LC50,Tetranychus urticae [1],248 µg/mL
same,LC50,Tetranychus urticae [2],1.33 mg/mL
same,RatioLC50,Tetranychus urticae [3],5.5
same,RatioLC50,Tetranychus urticae [4],4.3
same,LC50,Tetranychus urticae [5],18 µg/mL
same,LC50,Tetranychus urticae [6],130 µg/mL
same,RatioLC50,Tetranychus urticae [7],19
same,RatioLC50,Tetranychus urticae [8],23
same,RatioLC50,Tetranychus urticae [9],12
same,LC50,Tetranychus urticae [10],77 µg/mL
same,LC50,Tetranychus urticae [11],417 µg/mL
same,RatioLC50,Tetranychus urticae [12],14
same,RatioLC50,Tetranychus urticae [13],74
same,LC50,Tetranychus urticae [14],225 µg/mL
same,RatioLC50,Tetranychus urticae [15],11
same,RatioLC50,Tetranychus urticae [16],7.3
same,LC50,Tetranychus urticae [17],248 µg/mL
same,LC50,Tetranychus urticae [18],98 µg/mL
same,RatioLC50,Tetranychus urticae [19],14
same,LC50,Tetranychus urticae [20],204 µg/mL
same,LC50,Tetranychus urticae [21],158 µg/mL
same,RatioLC50,Tetranychus urticae [22],8.9
same,LC50,Tetranychus urticae [23],332 µg/mL
CC(C)(C)c1ccc(CSc2cnn(C(C)(C)C)c(=O)c2Cl)cc1 [PYRIDABEN],RatioLC50,Tetranychus urticae [24],26
same,LC50,Tetranychus urticae [25],16 µg/mL
same,RatioLC50,Tetranychus urticae [26],9.8
same,RatioLC50,Tetranychus urticae [27],4
same,LC50,Tetranychus urticae [28],4.4 µg/mL
same,LC50,Tetranychus urticae [29],166 µg/mL
same,LC50,Tetranychus urticae [30],6.4 µg/mL
same,LC50,Tetranychus urticae [31],29 µg/mL
same,LC50,Tetranychus urticae [32],248 µg/mL
same,RatioLC50,Tetranychus urticae [33],34
same,LC50,Tetranychus urticae [34],117 µg/mL
same,LC50,Tetranychus urticae [35],62 µg/mL
same,LC50,Tetranychus urticae [36],26 µg/mL
same,RatioLC50,Tetranychus urticae [37],0.7
same,RatioLC50,Tetranychus urticae [38],39
same,RatioLC50,Tetranychus urticae [39],5.9
same,RatioLC50,Tetranychus urticae [40],11
same,LC50,Tetranychus urticae [41],38 µg/mL
same,LC50,Tetranychus urticae [42],221 µg/mL
same,LC50,Tetranychus urticae [43],71 µg/mL
same,RatioLC50,Tetranychus urticae [44],2.6
same,RatioLC50,Tetranychus urticae [45],4.5
same,RatioLC50,Tetranychus urticae [46],18
